# According to a melting point compilation (Tetko et al.; mined from patent text by program, amines drawn as free bases though some values may be those of a salt):
row,Compound,melting point [°C]
1,CS(=O)(=O)c1cccc(C2=C(c3ccccc3)C(=O)N(c3ccc(F)cc3)C2)c1,207 to 209
2,CS/C(=N\O)C(F)(F)F,52 to 54
3,CS(=O)(=O)c1ccc(-n2nc(C(F)(F)F)cc2-c2ccc(-c3ccco3)cc2F)cc1,223 to 225
4,CCCc1cc(C(=O)O)n(C)n1,150 to 154
5,O=C(Cc1ccccc1)NC1C(=O)N2CC(C(=O)OCc3ccccc3)SC12 (stereo not drawn),130 to 132
6,CCOc1ccc(Nc2nnc(Cc3ccncc3)c3ccccc23)cc1,223 to 224
7,N#CSCC1CC(=O)N(c2ccc(F)cc2)C1=O (stereo not drawn),88
8,O=C(NCc1ccco1)c1ccc(-c2ccc3nnn(Cc4ccc5ncccc5c4)c3n2)cc1F,144 to 147
9,C=CCOc1cc(C)ccc1[N+](=O)[O-],30 to 32
10,COc1ccc(CCC(=O)C2C(=O)C=C(C)OC2=O)cc1O (stereo not drawn),115 to 116
11,CC1(C)Oc2c(c(=O)n(Cc3ccccc3)c3ccccc23)[C@@H](NC(=O)CCCCl)[C@@H]1O (relative stereo),176 to 178
12,CC1(C)C(=O)C(C)(C)c2cc3[nH]c(S)nc3cc21,> 300
13,CCCNCC(O)c1ccc(Br)cc1 (stereo not drawn),72.5 to 74.5
14,OC(c1ccc2c(c1)CCN2)(C(F)(F)F)C(F)(F)F,161 to 162
15,O=C(O)C1CCC2CCC(=O)N21 (stereo not drawn),145 to 148
16,CN(C)C=NS(=O)(=O)c1cc(CCNC(=O)C(F)(F)F)ccc1OCc1ccccc1,103
17,COc1cccc(-c2ncc3n2CC(=O)N(C)C3)c1,115 to 117
18,CC(=O)N(C)C(CCCC(=O)O)C(=O)N(C)c1c(I)cc(I)c(C(=O)O)c1I (stereo not drawn),194 to 204
19,CCCCOc1cc(CN)cc(S(N)(=O)=O)c1Cc1ccccc1,176 to 179
20,CCCNC(=O)C(C)=Cc1ccc2c(c1)c(Cc1ccc(C(=O)NS(=O)(=O)c3ccccc3C)cc1OC)cn2CC(=O)N(C)C,230 to 231
21,Cc1cc(C)c(-c2csc(N)n2)c(C)c1,138
22,Cc1ccc(C=NC2=NN(c3ccc4ccccc4c3)CC2)cc1,184 to 186
23,CCCCCCCCCCCCC1=C(OC(C)=O)C(=O)c2c(C)cccc2C1=O,69 to 74
24,COC(=O)CCCCCCCCOC1OC(CO)C(O)C(O)C1NC(C)=O (stereo not drawn),178 to 180
25,CCOCc1nc2c(N)nc3cc(-c4cccc(C(=O)O)c4)ccc3c2n1CC(C)(C)O,> 250

row,Compound,melting point [°C]
1,COC1(c2ccco2)CC2=C(C=C1C(F)(F)F)N(C(=O)Nc1cccnc1)CC2 (stereo not drawn),92 to 94
2,O=C(O)Cc1cc(F)ccc1Sc1ccccc1,80 to 83
3,Nc1c(NCCSCc2csc(CN3CCCCC3)c2)c(=O)c1=O,236 to 238
4,COc1ccc(CCCOc2c(C)cc(-c3noc(C(F)(F)F)n3)cc2C)cn1,62 to 64
5,O=C(O)CC(C(=O)O)c1ccn2c(=O)c(C(=O)O)ccc2c1 (stereo not drawn),250
6,CC(COc1cccc(Oc2ccccc2)c1)OS(N)(=O)=O (stereo not drawn),81 to 84
7,COc1c(SCc2ccco2)ccnc1CO,56 to 58
8,Cc1[nH]c2ccccc2c1C=C1SC(=S)N(CC(=O)O)C1=O,291 to 292
9,CCc1cncc(-c2[nH]nc(C(=O)Cc3ccc4ccccc4c3)c2N)c1,222 to 224
10,C=CCN1C(=O)C=C(NC2c3cc4c(cc3C(c3cc(OC)c(O)c(OC)c3)C3C(=O)OCC23)OCO4)C1=O (stereo not drawn),180 to 183
11,CC(=O)Nc1c(Cl)cnn(C)c1=O,147 to 148
12,COc1cccc(Cl)c1C(O)C(N)=O (stereo not drawn),116 to 118
13,O=C(O)c1c(Oc2ccccc2)cccc1Oc1ccccc1,164 to 165
14,COC(c1ccc(NC(=O)c2c(C(F)(F)F)nn(C)c2C)cc1CC(C)C)(C(F)(F)F)C(F)(F)F,138 to 139
15,NS(=O)(=O)c1sc2ccccc2c1CCO,162 to 164
16,NCCCc1ccc(SCCC(c2ccccc2)(c2ccccc2)c2ccccc2)cc1,73 to 75
17,COc1ccccc1C=CC(=O)C(CC=Cc1ccccc1Cl)(CCC(=O)O)c1ccccc1 (stereo not drawn),206 to 210
18,CCCc1nc2c(N)nc3cc(OCCN4CCCC4=O)ccc3c2s1,163 to 166
19,CC(=O)c1cn(-c2cc(C)c3[nH]c(=O)ccc3c2)c(C)n1,306 to 308
20,NC(=O)N1CCN(C(=O)Cc2ccc(Cl)c(Cl)c2)C(CN2CCCC2)C1 (stereo not drawn),206 to 209
21,COc1ccc2c(O)cccc2c1,73 to 75
22,COc1ccc(Cl)cc1-n1c(N(C)C)nc2cc(C(F)(F)F)ccc21,230 to 234
23,O=[N+]([O-])c1cc(Cl)cc2c1OC[C@H](CO)O2,83 to 88
24,O=CN(N=Cc1cccs1)c1ccc(Cl)cc1,103 to 105
25,c1ccc(CN2CCC3(CC2)OCCO3)cc1,< 50

row,Compound,melting point [°C]
1,O=C(Cc1ccccc1[N+](=O)[O-])c1c(O)c2cccnc2n(-c2ccccc2)c1=O,194 to 195
2,COC(=O)C=C1CN2C(=O)N(c3cc(Cl)cc(Cl)c3)C(=O)C2(Cc2ccc(Br)cc2)C1 (stereo not drawn),74.9
3,O=C(CN1C(=O)c2ccccc2C1=O)N1CCN(C(=O)c2cc(C(F)(F)F)cc(C(F)(F)F)c2)[C@H](Cc2c[nH]c3ccccc23)C1,> 220
4,O=C1CCCc2nc(C#Cc3ccccc3)ccc21,121 to 122
5,CCOC(=O)C(=COS(=O)(=O)c1ccc(C)cc1)c1ccccc1,159 to 160
6,CNCC1(C2(O)CCCC2)Cc2cc3sccc3cc21 (stereo not drawn),166 to 169
7,O=C(Nc1ccccc1OCC1CO1)c1cccc2[nH]ccc12 (stereo not drawn),122
8,CC(C)Oc1ccc(CCCO)c(OCc2ccc(Cl)cc2Cl)c1,75.5 to 76.5
9,COc1cc(-c2c(Cl)c(CNC(C)(C)C)nc3sc4c(c23)CCN(C(=O)c2ccccc2)C4)ccc1OC(C)C,165 to 166
10,Cc1cc(-n2cncn2)c2cc(Cl)cc(Cl)c2n1,220 to 222
11,CC(C)c1nsc(N=C(C#N)N(C)C)c1C#N,78 to 79
12,CNC(=O)[C@@H]1C[C@H](OS(=O)(=O)c2ccc(C)cc2)CN1S(=O)(=O)c1ccc(C)cc1,147 to 149
13,Cc1oc2c(NC(=O)c3c(Cl)cccc3Cl)cc(NC(N)=O)cc2c1C,> 250
14,CC(C)c1c(Sc2cc(Cl)cc(Cl)c2)nc(COCCO)n1C,67 to 68
15,O=C(CCCCC1CCSS1)NO (stereo not drawn),63 to 64
16,CC(C)C(=O)N1C2=NCCN2C(=O)c2nc(C(C)C)[nH]c21,271 to 273
17,C=C(c1ccc(N(C)C)cc1)c1ccc(N2CCCC2)cc1,149 to 150
18,O=C(O)C(Cc1n[nH]c2ccccc12)NC(=O)C(CS)C(F)(F)F (stereo not drawn),218 to 220
19,COc1cccc(Oc2c(NS(=O)(=O)c3ccc(C(C)(C)C)cc3)ncnc2OCCOc2ccncn2)c1,149 to 150
20,Cc1nc2cccc(OCC=CCN3CCN(C4c5ccccc5CCc5ccccc54)CC3)c2s1,114
21,O=Cc1cc([N+](=O)[O-])ccc1Br,86 to 88
22,COc1cc([N+](=O)[O-])c2nccc(C)c2c1OCCCCCc1cccs1,51 to 54
23,CCn1ncc2c(NN=C(C)C)c(C(N)=O)cnc21,217 to 218
